Reference: patent US20190216726A1, “Particles, Compositions and Methods for Ophthalmic and/or Other Applications” (priority 2016, published 2019)

Legend:
Type in all cases: physicochemical
[1] = DLS particle size and PDI of drugs milled with F127 or SDS (Example 6)
Excerpt: The technique described in Example 1 was applied to other non-polymeric solid particles to show the versatility of the approach. […] Table 12 lists the particle sizes for a representative selection of drugs that were milled using this method.

[2] = XRPD crystal form before and after milling; details: milled with F127
Excerpt: Particles were isolated by centrifugation, then resuspended in H2O and then recentrifuged. The wet sample was resuspended in H2O and deposited thinly and evenly onto a flat zero background sample holder (Rigaku 906165). The sample was allowed to air dry.
Milligram amounts were packed as an evenly thin layer of solid onto a zero background sample holder (Rigaku 906165).
XRPD patterns were obtained using a Rigaku MiniFlex 600 benchtop x-ray diffractometer equipped with a Cu X-ray tube (Cu/Kα=1.54059 Å), a six-position sample changer and a D/teX Ultra detector. […] Diffraction patterns were viewed and analyzed using PDXL analysis software provided by the instrument manufacturer. A reference standard silicon powder (NIST Standard Reference Material 640d) generated a peak at 28.43° and 28.45° two theta when samples were prepared as suspension in H2O (to simulate Procedure A) and Procedure B, respectively.
Except for Crystalline Form 1-B, the XRPD samples of all other forms were prepared using Procedure A (milled compounds) or Procedure B (neat compounds). […] was used to prepare the XRPD sample of Crystalline Form 1-B.
All input crystalline forms were arbitrarily designated as “A” forms. New forms that emerged after milling, if any, were sequentially designated as “B”, “C”, etc. An “A” form was not designated for Compound 2 since the input material was amorphous.

[3] = DLS particle size and PDI of hydrocortisone derivatives milled with Pluronic F127 (Examples 8, 9); details: for PDI of milled suspension / Size (Z-averaged) of milled suspension: 5% compound, 5% F127 in PBS pH 7.1, milled 25 hours; for Milled suspension PDI / Milled suspension Size (Z-average): final form B
Experimental: (§1) A milling procedure was employed in which aqueous dispersions containing coarse compound particles were individually milled with F127 at near-neutral pH buffer using a grinding medium. Briefly, a slurry containing 5% of compound and 5% F127 in PBS (0.0067 M PO4^3−), pH 7.1 was added to an equal bulk volume of 1-mm ceria-stabilized zirconium oxide beads in a glass vial (e.g., 2 mL of slurry per 2 mL of beads). A magnetic stir bar was used to agitate the beads, stirring at approximately 500 rpm at ambient conditions for 25 hours.
The milled suspensions were subjected to dynamic light scattering (DLS) measurements to determine particle size and polydispersity index (PDI, a measure of the width of the particle size distribution). The samples for DLS measurements were buffered with HyClone™ PBS (Phosphate-Buffered Saline) to produce isotonic samples that have a physiologically relevant pH.
Form 3-B was wet-milled using the same method that generated the data in Tables 13 and 14.

[4] = HPLC chemical purity of milled suspensions (stability to milling)
Experimental: as §1
The HPLC method used to determine the purity of milled suspensions is as follows: column—SunFire™ C18, 3.5 μm, 3.0×150 mm, column temperature—40° C., flow rate—0.7 mL/min, detection wavelength—254 nm, flow gradient—50:50 (0 minutes) to 0:100 (10 minutes) 0.1% phosphoric acid/H2O:acetonitrile.

[5] = drug milled with stabilizer F127
[6] = drug milled with stabilizer SDS

SMILES | PDI [1, 5] | Z-Ave D [1, 5] [nm] | PDI [1, 6] | Z-Ave D [1, 6] [nm] | Crystal form change after milling of Input forms? [2] | Size (Z-averaged) of milled suspension [3] [nm] | Purity after milling ([4]; after milling with F127) [%] | other results
C[C@]12C=CC(=O)C=C1CC[C@@H]1[C@@H]2[C@@H](O)C[C@@]2(C)[C@H]1CC[C@]2(O)C(=O)CO [Prednisolone] | 0.090 | 273 | 0.120 | 245 | – | – | – | –
NS(=O)(=O)c1cc(C(=O)O)c(NCc2ccco2)cc1Cl [Furosemide] | 0.119 | 217 | 0.146 | 200 | – | – | – | –
C[C@]12CCC(=O)C=C1CC[C@@H]1[C@@H]2[C@@H](O)C[C@@]2(C)[C@H]1CC[C@]2(OC(=O)Cc1ccc(Br)cc1)C(=O)CO [Compound 3, (10R,11S,13S,17R)-11-hydroxy-17-(2-hydroxyacetyl)-10,13-dimethyl-3-oxo-2,3,6,7,8,9,10,11,12,13,14,15,16,17-tetradecahydro-1H-cyclopenta[a]phenanthren-17-yl 2-(4-bromophenyl)acetate] | – | – | – | – | Yes | 341 | >96 | PDI of milled suspension [3]: 0.197; Milled suspension PDI ([3]; input form A): 0.197; Milled suspension Size (Z-average) ([3]; input form A): 341 nm; Milled suspension PDI ([3]; input form B): 0.154; Milled suspension Size (Z-average) ([3]; input form B): 262 nm
CCOC(=O)O[C@]1(C(=O)OCCl)CC[C@H]2[C@@H]3CCC4=CC(=O)C=C[C@]4(C)[C@H]3[C@@H](O)C[C@@]21C [Loteprednol etabonate] | 0.123 | 241 | 0.130 | 241 | – | – | – | –
C[C@]12CCC(=O)C=C1CC[C@@H]1[C@@H]2[C@@H](O)C[C@@]2(C)[C@H]1CC[C@]2(OC(=O)CCS(=O)(=O)c1ccccc1)C(=O)CO [Compound 1, (10R,11S,13S,17R)-11-hydroxy-17-(2-hydroxyacetyl)-10,13-dimethyl-3-oxo-2,3,6,7,8,9,10,11,12,13,14,15,16,17-tetradecahydro-1H-cyclopenta[a]phenanthren-17-yl 3-(phenylsulfonyl)propanoate] | – | – | – | – | Yes | 509 | <90 | PDI of milled suspension [3]: 0.318; Purity after milling ([4]; after milling with F127, listed as 7): < 90%
C[C@]12CCC(=O)C=C1CC[C@@H]1[C@@H]2[C@@H](O)C[C@@]2(C)[C@H]1CC[C@]2(OC(=O)c1ccco1)C(=O)CO [Compound 2, (10R,11S,13S,17R)-11-hydroxy-17-(2-hydroxyacetyl)-10,13-dimethyl-3-oxo-2,3,6,7,8,9,10,11,12,13,14,15,16,17-tetradecahydro-1H-cyclopenta[a]phenanthren-17-yl furan-2-carboxylate] | – | – | – | – | No | 238 | >96 | –
COc1ccc2c(c1)c(CC(=O)O)c(C)n2C(=O)c1ccc(Cl)cc1 [Indomethacin] | 0.123 | 225 | 0.154 | 216 | – | – | – | –
CCC(=O)O[C@]1(C(=O)SCF)[C@H](C)C[C@H]2[C@@H]3C[C@H](F)C4=CC(=O)C=C[C@]4(C)[C@@]3(F)[C@@H](O)C[C@@]21C [Fluticasone propionate] | 0.114 | 203 | 0.193 | 202 | – | – | – | –
